Data reported in US11938122B2, “5-[[4-[2-[5-(1-hydroxyethyl)pyridin-2-yl]ethoxy]phenyl]methyl]-1,3- thiazolidine-2,4-dione for treating nonalcoholic fatty liver disease” (Minoryx Therapeutics S.L., priority 2016, dated 2024).
Like-named read-outs stand apart in the source and are kept apart here.

Legend:
[1] = system: diabetic preclinical models; conditions: compared with pioglitazone, literature; cited from earlier work
2C8 = molecular target: T1, 2C8 (Homo sapiens, UniProt P10632); conditions: Sahi et al.; cited from earlier work
T1 sequence (P10632 1-490): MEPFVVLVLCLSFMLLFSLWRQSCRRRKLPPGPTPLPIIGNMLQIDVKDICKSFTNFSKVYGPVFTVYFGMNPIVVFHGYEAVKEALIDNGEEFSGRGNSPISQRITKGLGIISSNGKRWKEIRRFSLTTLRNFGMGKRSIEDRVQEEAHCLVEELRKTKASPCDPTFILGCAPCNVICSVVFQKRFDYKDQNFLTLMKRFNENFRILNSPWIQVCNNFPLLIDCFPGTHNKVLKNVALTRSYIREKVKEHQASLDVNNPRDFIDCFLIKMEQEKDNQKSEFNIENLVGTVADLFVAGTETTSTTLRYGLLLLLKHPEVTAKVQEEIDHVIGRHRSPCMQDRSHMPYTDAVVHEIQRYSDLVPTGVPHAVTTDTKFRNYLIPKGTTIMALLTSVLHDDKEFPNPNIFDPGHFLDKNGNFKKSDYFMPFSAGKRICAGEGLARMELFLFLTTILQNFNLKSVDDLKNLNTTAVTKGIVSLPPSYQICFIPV

[2] = cited from earlier work; for AUC0-∞ mean: healthy subjects, single oral dose 45 mg
bladder urothelium = assay: Bladder epithelium hyperplasia in rat tissue; type: in vivo; conditions: treated rats; pioglitazone 14.5 and 145 mg/Kg/day, MIN-102 25, 100 and 150 mg/Kg/day
CYP2B6 = assay: CYP induction in cryopreserved human hepatocytes; type: in vitro ADME; conditions: 50 μM, similar assay
CYP3A4 = assay: CYP induction in cryopreserved human hepatocytes; type: in vitro ADME; conditions: 10 μM, similar assay
[3] = Eckland et al., Christensen et al.

Compound | pharmacological activity [1] | IC50 (2C8) [µM] | Ki (2C8) [µM] | range in exposure (AUC) [2, 3] | variability (CV %) in clearance [2, 3] | AUC0-∞ mean ([2]; study a) [ng·h/mL] | AUC0-∞ mean ([2]; study b) [ng·h/mL] | AUC0-∞ mean ([2]; study c) [ng·h/mL] | bladder epithelium hyperplasia (bladder urothelium) | induction in CYPB6 (CYP2B6) [fold] | induction in CYP3A4 (CYP3A4) [fold]
CC(O)c1ccc(CCOc2ccc(CC3SC(=O)NC3=O)cc2)nc1 (stereo not drawn) [(1), 5-[[4-[2-[5-(1-hydroxyethyl)pyridin-2-yl]ethoxy]phenyl]methyl]-1,3-thiazolidine-2,4-dione] | less active than pioglitazone | – | – | – | – | – | – | – | – | – | –
CC(=O)c1ccc(CCOc2ccc(CC3SC(=O)NC3=O)cc2)nc1 (stereo not drawn) [M-III, reference compound] | less active than pioglitazone | – | – | – | – | – | – | – | – | – | –
CCc1ccc(CCOc2ccc(CC3SC(=O)NC3=O)cc2)nc1 (stereo not drawn) [pioglitazone] | – | 9.38 | 1.69 | up to 10 fold | 40%-50% | 13854 | 14458 | 14071 | only observed in the pioglitazone group | 2.35 | 4.79
